Reference: patent US7572606B1 (Nereus Pharmaceuticals, Inc., priority 2005, dated 2009)
Read-outs that look alike come from different tables or passages of the source.

Tests used:
[1] = test system: chymotrypsin-like proteasome activity in packed whole blood lysate; assay: Whole blood proteasome activity after dosing (PWBL assay); type: in vivo, male Swiss-Webster mice; settings: mice
Experimental: In brief, frozen whole blood samples were thawed on ice for one hour, and resuspended in 700 μL of ice cold 5 mM EDTA, pH 8.0 in order to lyse the cells by hypotonic shock. This represents approximately 2-3 times the volume of the packed whole blood cells. Lysis was allowed to proceed for one hour, and the cellular debris was removed by centrifugation at 14,000×g for 10 minutes. The supernatant (Packed Whole Blood Lysate, PWBL) was transferred to a fresh tube, and the pellet discarded. Protein concentration of the PWBL was determined by BCA assay (Pierce) using BSA as a standard.
Proteasome activity was determined by measuring the hydrolysis of a fluorogenic substrate specific for the chymotrypsin-like activity of proteasomes (suc-LLVY-AMC, Bachem Cat. I-1395). […] The rate of hydrolysis in this system is linear for at least one hour. The hydrolysis rate of each sample is then normalized to relative fluorescent units per milligram of protein (RFU/mg).
The vehicle control consisted of 2% DMSO in 10% solutol. […] Packed whole blood cells were collected by centrifugation, washed with PBS, and re-centrifuged. All samples were stored at −80° C. prior to the evaluation of the proteasome activity.
Male Swiss Webster mice (12/group weighing 20-25 g) were injected with LPS (2 mg/kg) by the i.p. route. […]

[2] = test system: PARP and Pro-Caspase 3 in PC-3 cells; assay: PARP and Pro-Caspase 3 cleavage, western blot; type: cell-based, human; settings: 100 nM for 0, 8 or 24 hours
Experimental: Total protein lysates were made and 20 μg of the lysates were then resolved under reducing/denaturing conditions and blotted onto nitrocellulose. The blots were then probed with anti-PARP or anti-caspase 3 antibodies followed by stripping and reprobing with an anti-actin antibody.

[3] = test system: MIA PaCa-2; assay: Cell growth inhibition, resazurin, 48 h; type: cell-based; settings: Homo sapiens; MIA PaCa-2, 48 h drug exposure
[4] = test system: MALME-3M; assay: NCI 60 cell line screen, sulforhodamine B, 48 h; type: cell-based, human; settings: Melanoma
Experimental: (§1) A detailed description of the screening procedure can be found at hypertext transfer protocol (http://) “dtp.nci.nih.gov/branches/btb/ivclsp.html.”
(§2) In brief, each of the 60 human tumor cell lines were grown in RPMI 1640 medium, supplemented with 5% fetal bovine serum and 2 mM L-glutamine. Cells were plated at their appropriate density in 96-well microtiter plates and incubated at 37° C., 5% CO2, 95% air and 100% relative humidity. […] Cells were incubated for an additional 48 hours and a sulforhodamine B protein assay was used to estimate cell viability or growth.

[5] = test system: HDP-92; assay: NCI 60 cell line screen, sulforhodamine B, 48 h; type: cell-based, human
Experimental: as §1, §2

[6] = test system: MDA-N; assay: NCI 60 cell line screen, sulforhodamine B, 48 h; type: cell-based, human; settings: Breast Cancer
Experimental: as §1, §2

[7] = test system: NCI-H522; assay: NCI 60 cell line screen, sulforhodamine B, 48 h; type: cell-based, human; settings: NCI-H522, Non-Small Cell Lung Cancer
Experimental: as §1, §2

[8] = test system: SN12C; assay: NCI 60 cell line screen, sulforhodamine B, 48 h; type: cell-based, human; settings: Renal Cancer
Experimental: as §1, §2

[9] = test system: RPMI-8226; assay: NCI 60 cell line screen, sulforhodamine B, 48 h; type: cell-based, human
Experimental: as §1, §2

[10] = test system: EKVX; assay: NCI 60 cell line screen, sulforhodamine B, 48 h; type: cell-based, human; settings: Non-Small Cell Lung Cancer
Experimental: as §1, §2

[11] = test system: COLO 205; assay: NCI 60 cell line screen, sulforhodamine B, 48 h; type: cell-based, human; settings: COLO 205, Colon Cancer
Experimental: as §1, §2

[12] = test system: PC-3; assay: NCI 60 cell line screen, sulforhodamine B, 48 h; type: cell-based, human
Experimental: as §1, §2

[13] = test system: CAK1-1; assay: NCI 60 cell line screen, sulforhodamine B, 48 h; type: cell-based, human; settings: CAK1-1, Renal Cancer
Experimental: as §1, §2

[14] = test system: SK-MEL-21; assay: NCI 60 cell line screen, sulforhodamine B, 48 h; type: cell-based, human; settings: for CC50: Homo sapiens
Experimental: as §1, §2

[15] = test system: OVCAR-5; assay: NCI 60 cell line screen, sulforhodamine B, 48 h; type: cell-based, human; settings: OVCAR-5, Ovarian Cancer
Experimental: as §1, §2

[16] = test system: BT-459; assay: NCI 60 cell line screen, sulforhodamine B, 48 h; type: cell-based, human
Experimental: as §1, §2

[17] = test system: OVCAR-3; assay: NCI 60 cell line screen, sulforhodamine B, 48 h; type: cell-based, human; settings: OVCAR-3, Ovarian Cancer
Experimental: as §1, §2

[18] = test system: SR; assay: NCI 60 cell line screen, sulforhodamine B, 48 h; type: cell-based, human; settings: Leukemia
Experimental: as §1, §2

[19] = test system: M14; assay: NCI 60 cell line screen, sulforhodamine B, 48 h; type: cell-based, human
Experimental: as §1, §2

[20] = test system: NCVADR-RES; assay: NCI 60 cell line screen, sulforhodamine B, 48 h; type: cell-based, human
Experimental: as §1, §2

[21] = test system: MCF7; assay: NCI 60 cell line screen, sulforhodamine B, 48 h; type: cell-based, human; settings: MCF7, Breast Cancer
Experimental: as §1, §2

[22] = test system: MDA-MB-435; assay: NCI 60 cell line screen, sulforhodamine B, 48 h; type: cell-based, human; settings: for CC50: Homo sapiens
Experimental: as §1, §2

[23] = HDP-92, Non-Small Cell Lung Cancer
[24] = Homo sapiens, 60 cell, read-out: Log10 LC50 (converted)

## C[C@@]12OC(=O)[C@]1([C@@H](O)[C@@H]1C=CCCC1)NC(=O)[C@@H]2CCCl [Formula II-16, Salinosporamide A]
[1]; i.v. or oral, blood 90 min after administration
  proteasomal activity in PWBL: profound decrease in proteasomal activity in PWBL
[1]; oral
  activity upon oral administration (PWBL proteasome): active upon oral administration
[2]
  cleavage of PARP and Pro-Caspase 3: cleavage of PARP is noticeable at 24 hours
[3]
  EC50: 0.046 µM
[4]
  Log10 G150: <-8.00 Molar
  Log10 TGI: <-8.00 Molar
[5]; [23]
  Log10 G150: <-8.00 Molar
  Log10 TGI: -7.77 Molar
[5]; [24]
  CC50: 4.37 µM
[6]
  Log10 G150: <-8.00 Molar
  Log10 TGI: <-8.00 Molar
[7]
  Log10 G150: <-8.00 Molar
  Log10 TGI: <-8.00 Molar
[8]
  Log10 G150: <-8.00 Molar
  Log10 TGI: <-8.00 Molar
[9]; Homo sapiens, RPMI-8226, read-out: Log10 LC50 (converted)
  CC50: > 100 µM
[9]; RPMI-8226, Leukemia
  Log10 G150: <-8.00 Molar
  Log10 TGI: <-8.00 Molar
[10]
  Log10 G150: <-8.00 Molar
  Log10 TGI: -5.67 Molar
[11]
  Log10 G150: <-8.00 Molar
  Log10 TGI: -6.19 Molar
[12]; Homo sapiens, PC-3, read-out: Log10 LC50 (converted)
  CC50: 11.7 µM
[12]; PC-3, Prostate Cancer
  Log10 G150: <-8.00 Molar
  Log10 TGI: -5.81 Molar
[13]
  Log10 G150: <-8.00 Molar
  Log10 TGI: >-4.00 Molar
[14]; 60 cell, read-out: Log10 LC50 (converted)
  CC50: < 0.01 µM
[14]; SK-MEL-28, read-out: LC50
  CC50: < 0.01 µM
[14]; SK-MEL-21, Melanoma
  Log10 G150: <-8.00 Molar
  Log10 TGI: <-8.00 Molar
[15]
  Log10 G150: <-8.00 Molar
  Log10 TGI: -7.28 Molar
[16]; BT-459, Breast Cancer
  Log10 G150: <-8.00 Molar
  Log10 TGI: <-8.00 Molar
[16]; [24]
  CC50: 0.0603 µM
[17]
  Log10 G150: <-8.00 Molar
  Log10 TGI: -4.83 Molar
[18]
  Log10 G150: <-8.00 Molar
  Log10 TGI: <-8.00 Molar
[19]; Homo sapiens, M14, read-out: Log10 LC50 (converted)
  CC50: 0.186 µM
[19]; M14, Melanoma
  Log10 G150: <-8.00 Molar
  Log10 TGI: -7.94 Molar
[20]; [24]
  CC50: 0.178 µM
[20]; NCVADR-RES, Breast Cancer
  Log10 G150: <-8.00 Molar
  Log10 TGI: <-8.00 Molar
[21]
  Log10 G150: <-8.00 Molar
  Log10 TGI: >-4.00 Molar
[22]; MDA-MB-435, read-out: LC50
  CC50: < 0.01 µM
[22]; MDA-MB-435, read-out: Log10 LC50 (converted)
  CC50: < 0.01 µM
[22]; MDA-MB-435, Breast Cancer
  Log10 G150: <-8.00 Molar
  Log10 TGI: <-8.00 Molar
